# In PubChem BioAssay AID623927 (Vanderbilt Specialized Chemistry Center, 2012):
# What was measured:
# [1] = target: Sodium-dependent serotonin transporter (Homo sapiens) (UniProt P31645); assay: PubChem AID 623927; conditions: Ricerca radioligand binding panel, 10 uM, % inhibition; serotonin transporter SERT binding; stronger effect = higher value
# [2] = target: Sodium-dependent dopamine transporter (Homo sapiens) (UniProt Q01959); assay: PubChem AID 623927; conditions: Ricerca radioligand binding panel, 10 uM, % inhibition; dopamine transporter DAT binding; stronger effect = higher value
# [3] = target: 5-hydroxytryptamine receptor 1A (Homo sapiens) (UniProt P08908); assay: PubChem AID 623927; conditions: Ricerca radioligand binding panel, 10 uM, % inhibition; serotonin 5-HT1A binding; stronger effect = higher value
# [4] = target: Sigma non-opioid intracellular receptor 1 (Homo sapiens) (UniProt Q99720); assay: PubChem AID 623927; conditions: Ricerca radioligand binding panel, 10 uM, % inhibition; sigma 1 receptor binding; stronger effect = higher value
# [5] = target: Voltage-gated inwardly rectifying potassium channel KCNH2 (Homo sapiens) (UniProt Q12809); assay: PubChem AID 623927; conditions: Ricerca radioligand binding panel, 10 uM, % inhibition; hERG channel binding; stronger effect = higher value
# [6] = system: norepinephrine transporter (NET) [Homo sapiens]; assay: PubChem AID 623927; conditions: Ricerca radioligand binding panel, 10 uM, % inhibition; stronger effect = higher value
# [7] = target: Adenosine receptor A1 (Homo sapiens) (UniProt P30542); assay: PubChem AID 623927; conditions: Ricerca radioligand binding panel, 10 uM, % inhibition; adenosine A1 binding; stronger effect = higher value
# [8] = target: Alpha-1A adrenergic receptor (Homo sapiens) (UniProt P35348); assay: PubChem AID 623927; conditions: Ricerca radioligand binding panel, 10 uM, % inhibition; adrenergic alpha1A binding; stronger effect = higher value
# PubChem AID 623927 = conditions: Ricerca radioligand binding panel, 10 uM, % inhibition, stronger effect = higher value
smiles,measurement,setting,value
O=C(Nc1cccc(Cl)c1)c1ccccn1,inhibition,[1],12%
same,inhibition,[2],31%
same,inhibition,[3],16%
same,inhibition,[4],27%
same,inhibition,[5],0%
same,inhibition of NET radioligand binding,[6],80%
same,inhibition,[7],17%
same,inhibition,[8],16%
same,inhibition,PubChem AID 623927; NMDA agonist site binding,15%
same,inhibition,PubChem AID 623927; NMDA phencyclidine site binding,15%
same,inhibition,PubChem AID 623927; phorbol ester binding,21%
same,inhibition,PubChem AID 623927; rolipram site (PDE4) binding,17%
same,inhibition,PubChem AID 623927; sigma 2 receptor binding,15%
